Patent publication US20220411480A1, “ANTITUMOR PEPTIDE AND USE THEREOF” (TOAGOSEI CO., LTD, priority 2018, published 2022)
Residues, ends and D or L forms follow the SMILES beside them.

Legend:
[1] = tested on: human melanoma (A2058) cell lines; assay: Antitumor activity evaluation test (1), cell viability by Cell Counting Kit-8 (WST-8); format: cell-based; settings: 48 hours, A2058 versus normal MCF-12F cells
Procedure: (§1) The antitumor activity of the sample peptides synthesized in Test Example 1 was evaluated using human-derived cultured tumor cells as targets.
(§2) Specifically, currently commercially available human melanoma (A2058) cell lines were used as test tumor cells. In addition, a normal human mammary epithelial cell culture line (MCF-12F) was used for comparison. Here, culture solutions of respective cells are as follows. • (1) A2058 cells:
(§3) DMEM culture medium including 2 mM L-glutamine, 0.1 mM of non-essential amino acids, 50 units/mL of penicillin, 50 μg/mL of streptomycin, and 10% fetal bovine serum (FBS) (product, commercially available from Wako Pure Chemical Industries, Ltd.). • (2) MCF-12F cells:
(§4) DMEM/F12 culture medium including 20 ng/mL of recombinant EGF, 10 μg/mL of insulin, 0.5 μg/mL of hydrocortisone, and 10% FBS (product, commercially available from Wako Pure Chemical Industries, Ltd.).
(§5) A2058 cells and MCF-12F cells were cultured and prepared so that the number of cells per well in a 96-well plate was about 5×10^3. An amount of the culture medium in this case was 100 μL per well.
(§6) Next, the 96-well plate was placed in a CO2 incubator and pre-incubated under conditions of 37° C. and 5% CO2 for about 1 day (21 hours to 24 hours).
(§7) Then, peptide-containing test culture mediums for each concentration were prepared so that the concentrations of the sample peptides to be evaluated were 12.5 μM and 25 μM, and supplied to wells (that is, wells after the pre-incubation) in which 90μL of cells to be evaluated were cultured in each well. Then, the 96-well plate was returned to the CO2 incubator and incubated under conditions of 37° C. and 5% CO2 for 48 hours.
(§8) Here, the number of test wells (n) at peptide concentrations in peptide addition test groups was set to 3. Therefore, the value of the result shown in the following table is an average value of the results obtained in three test wells. First, the cell viability (%) was determined as follows.
(§9) After the incubation for 48 hours was completed, the culture medium in each well was replaced with 100 μL of a fresh culture medium containing no peptide, and additionally, 10μL of a cell proliferation measurement reagent “Cell Counting Kit-8” (product, commercially available from Dojindo Molecular Technologies, Inc.) containing a “water-soluble tetrazolium salt (WST-8)” as a coloring reagent was added to each well. Then, the 96-well plate was returned to the CO2 incubator and incubated under conditions of 37° C., and 5% CO2 for 1.5 hours to 2 hours.
(§10) After the incubation was completed, the cell culture solution to which the reagent was added was collected and the cell viability (%) was evaluated according to a colorimetric method in which an absorbance at a wavelength of 450 nm (value corrected by the absorbance at a wavelength of 650 nm: A450-A650) was measured based on the reduction of the tetrazolium salt. Specifically, a measured value (measured absorbance) of a comparative test group in which the above incubation was performed for 48 hours simply in a culture medium containing no peptide was set as a cell viability of 100%, and the cell viability (%) was calculated from the measured absorbance of each test cell line as a relative value.
(§11) Specifically, a value (value multiplied by 100 for convenience) obtained by dividing the cell viability of target tumor cells (here, A2058 cells) when the sample peptides were added at a concentration of 12.5 μM or 25 μM measured as described above by the cell viability of comparative normal cells (here, MCF-12F cells) measured under the same conditions, that is,
(§12) {(A2058 cell viability)/(MCF-12F cell viability)}×100 was calculated as a specific cell viability of the tumor cells, and the test tumor cells selective antitumor activity with respect to normal cells was evaluated using such a specific cell viability as an index.

[2] = as above; format: cell-based, human; settings: peptide 25 μM, 48 hours, relative to culture medium containing no peptide = 100%; read-out: A2058 cell viability (survival rate)
Procedure: as §1, §2, §3, §4, §5, §6, §7, §8, §9, §10, §11, §12

CSCC[C@H](NC(=O)[C@H](C)N)C(=O)N[C@@H](Cc1ccc(O)cc1)C(=O)N[C@@H](CC(C)C)C(=O)N[C@@H](Cc1ccccc1)C(=O)N[C@@H](CC(C)C)C(=O)NCC(=O)N[C@@H](CC(N)=O)C(=O)N[C@@H](CC(C)C)C(=O)N[C@@H](C)C(=O)N[C@@H](C)C(=O)N[C@@H](CO)C(=O)N[C@@H](CC(=O)O)C(=O)N[C@@H](CC(C)C)C(=O)N[C@@H](CC(C)C)C(=O)N[C@@H](C)C(=O)NCC(=O)N[C@H](C(=O)N[C@@H](C)C(=O)N[C@@H](Cc1ccccc1)C(=O)N[C@H](C(=O)N[C@@H](C)C(=O)N[C@@H](CC(N)=O)C(=O)N[C@H](C(=O)N[C@@H](CC(C)C)C(=O)N[C@@H](CC(C)C)C(=O)N[C@@H](CO)C(=O)NCC(=O)N[C@@H](CO)C(=O)N[C@@H](CCCNC(=N)N)C(=O)N[C@@H](CCCCN)C(=O)N[C@@H](CCCCN)C(=O)N[C@@H](CCCNC(=N)N)C(=O)N[C@@H](CCCNC(=N)N)C(=O)N[C@@H](CCC(N)=O)C(=O)N[C@@H](CCCNC(=N)N)C(=O)N[C@@H](CCCNC(=N)N)C(=O)N[C@@H](CCCNC(=N)N)C(N)=O)[C@@H](C)O)C(C)C)C(C)C [Sample 1] (H-AMYLFLGNLAASDLLAGVAFVANTLLSGSRKKRRQRRR-NH2; N-terminus assumed)
Specific cell viability {(A2058 cell viability)/(MCF-12F cell viability)}×100 ([1]; peptide 12.5 μM): 114.85 | Specific cell viability {(A2058 cell viability)/(MCF-12F cell viability)}×100 ([1]; peptide 25 μM): 16.67 | viability [2]: 0.7%

CC(C)C[C@H](NC(=O)CNC(=O)[C@H](CCC(=O)O)NC(=O)[C@H](CCCNC(=N)N)NC(=O)[C@H](CC(C)C)NC(=O)[C@H](Cc1ccccc1)NC(=O)[C@@H](N)Cc1c[nH]c2ccccc12)C(=O)N[C@@H](CC(C)C)C(=O)N[C@@H](Cc1ccccc1)C(=O)N[C@H](C(=O)N[C@@H](C)C(=O)N[C@@H](CC(C)C)C(=O)N[C@@H](C)C(=O)N[C@@H](C)C(=O)N[C@@H](CO)C(=O)N[C@H](C(=O)N[C@@H](Cc1ccccc1)C(=O)N[C@@H](CO)C(=O)N[C@@H](CC(C)C)C(=O)N[C@@H](CC(C)C)C(=O)N[C@@H](Cc1ccccc1)C(=O)N[C@@H](CCCNC(=N)N)C(=O)N[C@@H](CCCCN)C(=O)N[C@@H](CCCCN)C(=O)N[C@@H](CCCNC(=N)N)C(=O)N[C@@H](CCCNC(=N)N)C(=O)N[C@@H](CCC(N)=O)C(=O)N[C@@H](CCCNC(=N)N)C(=O)N[C@@H](CCCNC(=N)N)C(=O)N[C@@H](CCCNC(=N)N)C(N)=O)[C@@H](C)O)[C@@H](C)O [Sample 3] (H-WFLREGLLFTALAASTFSLLFRKKRRQRRR-NH2; N-terminus assumed)
Specific cell viability {(A2058 cell viability)/(MCF-12F cell viability)}×100 ([1]; peptide 12.5 μM): 68.20 | Specific cell viability {(A2058 cell viability)/(MCF-12F cell viability)}×100 ([1]; peptide 25 μM): 25.41 | viability [2]: 4.6%

CC[C@H](C)[C@H](NC(=O)[C@H](Cc1ccccc1)NC(=O)CNC(=O)[C@H](Cc1ccc(O)cc1)NC(=O)[C@@H](N)C(C)C)C(=O)NCC(=O)N[C@@H](CC(C)C)C(=O)N[C@@H](CS)C(=O)N[C@@H](Cc1c[nH]c2ccccc12)C(=O)N[C@@H](CC(C)C)C(=O)N[C@@H](CC(C)C)C(=O)N[C@@H](C)C(=O)N[C@@H](C)C(=O)N[C@@H](CC(C)C)C(=O)N[C@@H](CC(C)C)C(=O)NCC(=O)N[C@@H](CCSC)C(=O)N[C@@H](CC(C)C)C(=O)N1CCC[C@H]1C(=O)N[C@@H](CC(C)C)C(=O)N[C@@H](CC(C)C)C(=O)N[C@@H](CCCNC(=N)N)C(=O)N[C@@H](CCCCN)C(=O)N[C@@H](CCCCN)C(=O)N[C@@H](CCCNC(=N)N)C(=O)N[C@@H](CCCNC(=N)N)C(=O)N[C@@H](CCC(N)=O)C(=O)N[C@@H](CCCNC(=N)N)C(=O)N[C@@H](CCCNC(=N)N)C(=O)N[C@@H](CCCNC(=N)N)C(N)=O [Sample 4] (H-VYGFIGLCWLLAALLGMLPLLRKKRRQRRR-NH2; N-terminus assumed)
Specific cell viability {(A2058 cell viability)/(MCF-12F cell viability)}×100 ([1]; peptide 12.5 μM): 46.80 | Specific cell viability {(A2058 cell viability)/(MCF-12F cell viability)}×100 ([1]; peptide 25 μM): 35.10 | viability [2]: 5.3%

CC[C@H](C)[C@H](NC(=O)[C@H](C)NC(=O)[C@H](CC(C)C)NC(=O)[C@H](CC(C)C)NC(=O)[C@H](CO)NC(=O)[C@H](CC(C)C)NC(=O)[C@@H](NC(=O)[C@H](CO)NC(=O)[C@H](C)NC(=O)[C@@H](NC(=O)[C@H](CC(C)C)NC(=O)[C@H](C)NC(=O)[C@@H](NC(=O)[C@H](Cc1ccccc1)NC(=O)[C@@H](NC(=O)CNC(=O)CNC(=O)[C@@H](N)CCC(=O)O)C(C)C)C(C)C)[C@@H](C)O)C(C)C)C(=O)N[C@@H](C)C(=O)N[C@@H](CC(C)C)C(=O)N[C@@H](CCC(=O)O)C(=O)N[C@@H](CCCNC(=N)N)C(=O)N[C@@H](CCCCN)C(=O)N[C@@H](CCCCN)C(=O)N[C@@H](CCCNC(=N)N)C(=O)N[C@@H](CCCNC(=N)N)C(=O)N[C@@H](CCC(N)=O)C(=O)N[C@@H](CCCNC(=N)N)C(=O)N[C@@H](CCCNC(=N)N)C(=O)N[C@@H](CCCNC(=N)N)C(N)=O [Sample 5] (H-EGGVFVALTASVLSLLAIALERKKRRQRRR-NH2; N-terminus assumed)
Specific cell viability {(A2058 cell viability)/(MCF-12F cell viability)}×100 ([1]; peptide 12.5 μM): 88.08 | Specific cell viability {(A2058 cell viability)/(MCF-12F cell viability)}×100 ([1]; peptide 25 μM): 10.09 | viability [2]: 5.5%
